Reference: PMC10439028, “SGLT5 is the renal transporter for 1,5-anhydroglucitol, a major player in two rare forms of neutropenia” (Cellular and Molecular Life Sciences: CMLS, 2023)

Biological target: T1, mouse SGLT5 (Mus musculus, UniProt Q5SWY8)
T1 construct: expressed in transfected cells; host or cells: HEK293T
T1 sequence (Q5SWY8 1-596): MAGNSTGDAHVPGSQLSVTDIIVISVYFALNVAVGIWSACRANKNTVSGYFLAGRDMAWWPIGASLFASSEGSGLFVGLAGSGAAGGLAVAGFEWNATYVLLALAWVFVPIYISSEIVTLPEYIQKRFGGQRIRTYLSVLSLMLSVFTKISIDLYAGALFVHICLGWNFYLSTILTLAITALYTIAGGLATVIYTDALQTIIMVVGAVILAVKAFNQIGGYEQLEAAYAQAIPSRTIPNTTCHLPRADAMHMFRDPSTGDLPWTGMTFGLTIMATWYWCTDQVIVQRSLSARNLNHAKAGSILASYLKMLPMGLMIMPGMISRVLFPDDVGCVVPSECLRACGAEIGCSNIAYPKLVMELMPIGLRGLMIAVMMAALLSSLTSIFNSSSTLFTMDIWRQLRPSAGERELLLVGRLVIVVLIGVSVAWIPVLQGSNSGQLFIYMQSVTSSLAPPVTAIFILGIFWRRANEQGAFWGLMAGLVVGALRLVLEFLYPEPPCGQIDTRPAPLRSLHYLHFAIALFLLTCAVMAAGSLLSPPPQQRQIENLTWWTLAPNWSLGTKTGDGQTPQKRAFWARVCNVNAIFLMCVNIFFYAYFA
Assay: Radioactive uptake assay (saturation kinetics) in HEK293T cells expressing mouse SGLT5
Assay type: cell-based
Description: For a typical transporter experiment we proceeded as follows. […] To minimize cell loss during the various washing steps in the radioactive uptake experiments, the wells where the cells were seeded were previously coated with poly- D-lysine, which improved their adhesion to the plastic surface of the wells. For this, each well of the 24-well plates was treated with 200 µl of a 0.01% poly-L-lysine solution for 10 min, washed 3 times with 1 ml of sterilized water and left to dry for 2 h. Only then could the 24-well plates be seeded with the appropriate cell lines and cultured overnight at 37 °C in 5% CO2.
On day two, the radioactive uptake assay could be performed. […]
Once the uptake medium was added to the cells, the plates were incubated at 37 °C in 5% CO2 during the required time. […] In each experiment, the transport activities were calculated after subtracting a “blank” value, corresponding to the radioactivity in the appropriate control cells (HEK293T cells that were stably or transiently transfected with one of the parent plasmids pEF6/MycHisA, pEF6HisB, pUB82 or pUB83 with no inserted cDNA) that were analyzed in parallel. […]
Supplementary Fig. 4: Transport activities for 1,5-anhydroglucitol and mannose of recombinant mouse SGLT4 and SGLT5 isoforms measured in HEK293T cells. […]

OC[C@H]1OC[C@H](O)[C@@H](O)[C@@H]1O [1,5-AG, 1,5-anhydroglucitol]
mSGLT5 Vmax (30 min, Supplementary Fig. 4): 16 pmol/min/100 000 cells | higher affinity of mouse SGLT5 than mouse SGLT4 for 1,5-AG (mouse SGLT5 versus mouse SGLT4): over tenfold
